This test deals with T1, KRAS G12C 1-169, his-tagged protein, GDP-loaded (Homo sapiens, UniProt P01116, G12C).
T1 construct: KRAS G12C 1-169, his-tagged protein, GDP-loaded
Briefly: Biochemical assay: covalent modification of KRAS G12C measured by mass spectrometry (RapidFire/TOF or Q-Exactive). The following applies: covalent binding to KRAS G12C; compounds of structure (I). The gist of the method:
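GDP-loaded his-tagged KRAS G12C 1-169 at 2 μM in 20 mM Hepes, 150 mM NaCl, 1 mM MgCl2 incubated at room temperature with compound (10, 30 or 100 μM final, 2% DMSO) for 30 min, 2 h or 24 h, then quenched with formic acid. Intact-protein LC-MS (RapidFire/TOF or Q-Exactive) with deconvolution quantified modified versus unmodified protein.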

Structures are written as SMILES.

With `C=CC(=O)N1CCN(c2nc(OCCc3ccc(C)nc3)nc3c(F)c(-c4c(O)cccc4F)c(Cl)cc23)CC1` [Example I-111, 1-(4-(6-chloro-8-fluoro-7-(2-fluoro-6-hydroxyphenyl)-2-(2-(6-methyl-pyridin-3-yl)ethoxy)quinazolin-4-yl)piperazin-1-yl) prop-2-en-1-one], the Binding % result was “+ (+ indicates binding activity up to 50%)”.

For the molecule `C=CC(=O)N1CCN(c2nc(OCc3ccccn3)nc3c(F)c(-c4c(O)cccc4F)c(Cl)cc23)CC1` [Example I-112, 1-(4-(6-chloro-8-fluoro-7-(2-fluoro-6-hydroxyphenyl)-2-(pyridin-2-ylmethoxy)quinazolin-4-yl)piperazin-1-yl) prop-2-en-1-one], the Binding % entry was “+++ (+++ indicates binding activity greater than 90%)”.

As for `C=CC(=O)N1CCN(c2nc(OCCS(C)(=O)=O)nc3c(F)c(-c4c(O)cccc4F)c(Cl)cc23)CC1` [Example I-113, 1-(4-(6-chloro-8-fluoro-7-(2-fluoro-6-hydroxyphenyl)-2-(2-(methyl-sulfonyl)ethoxy)quinazolin-4-yl)piperazin-1-yl) prop-2-en-1-one], the Binding % result is reported as “+++ (+++ indicates binding activity greater than 90%)”.

With `C=CC(=O)N1CCN(c2nc(OCCc3ncccc3F)nc3c(F)c(-c4c(O)cccc4F)c(Cl)cc23)CC1` [Example I-114, 1-(4-(6-chloro-8-fluoro-7-(2-fluoro-6-hydroxyphenyl)-2-(2-(3-fluoro-pyridin-2-yl)ethoxy)quinazolin-4-yl)piperazin-1-yl) prop-2-en-1-one], the Binding % result is reported as “+++ (+++ indicates binding activity greater than 90%)”.

Take `C=CC(=O)N1CCN(c2nc(OC3CCN(C(C)=O)CC3)nc3c(F)c(-c4c(O)cccc4F)c(Cl)cc23)CC1` [Example I-115, 1-(4-(2-(1-acetylpiperidin-4-yloxy)-6-chloro-8-fluoro-7-(2-fluoro-6-hydroxyphenyl)quinazolin-4-yl)piperazin-1-yl) prop-2-en-1-one]: the Binding % result is “+++ (+++ indicates binding activity greater than 90%)”.

Take `C=CC(=O)N1CCN(c2nc(OCc3cnc(OC)nc3)nc3c(F)c(-c4c(O)cccc4F)c(Cl)cc23)CC1` [Example I-118, 1-(4-(6-chloro-8-fluoro-7-(2-fluoro-6-hydroxyphenyl)-2-((2-methoxy-pyrimidin-5-yl)methoxy)quinazolin-4-yl)piperazin-1-yl) prop-2-en-1-one]: the Binding % entry is reported as “+++ (+++ indicates binding activity greater than 90%)”.

With `C=CC(=O)N1CCN(c2nc(OCc3cccnn3)nc3c(F)c(-c4c(O)cccc4F)c(Cl)cc23)CC1` [Example I-119, 1-(4-(6-chloro-8-fluoro-7-(2-fluoro-6-hydroxyphenyl)-2-(pyridazin-3-ylmethoxy)quinazolin-4-yl)piperazin-1-yl) prop-2-en-1-one], the Binding % result is “+ (+ indicates binding activity up to 50%)”.

Take `C=CC(=O)N1CCN(c2nc(NC3CCCN(C4CC4)C3)nc3c(F)c(-c4c(O)cccc4F)c(Cl)cc23)CC1` (stereo not drawn) [Example I-120, 1-(4-(6-chloro-2-(1-cyclopropyl-piperidin-3-ylamino)-8-fluoro-7-(2-fluoro-6-hydroxyphenyl)quinazolin-4-yl)piperazin-1-yl) prop-2-en-1-one]: the Binding % entry is “++ (++ indicates binding activity from 50 to 90%)”.

As to `C=CC(=O)N1CCN(c2nc(NC3CCCN(C(C)C)C3)nc3c(F)c(-c4c(O)cccc4F)c(Cl)cc23)CC1` (stereo not drawn) [Example I-121, 1-(4-(6-chloro-8-fluoro-7-(2-fluoro-6-hydroxyphenyl)-2-(1-isopropyl-piperidin-3-ylamino)quinazolin-4-yl)piperazin-1-yl) prop-2-en-1-one], the Binding % entry is reported as “+++ (+++ indicates binding activity greater than 90%)”.

As for `C=CC(=O)N1CCN(c2nc(OCc3cccc(C#N)n3)nc3c(F)c(-c4c(O)cccc4F)c(Cl)cc23)CC1` [Example I-122, 6-((4-(4-acryloyl-piperazin-1-yl)-6-chloro-8-fluoro-7-(2-fluoro-6-hydroxyphenyl)quinazolin-2-yloxy)methyl) picolinonitrile], the Binding % entry is “+++ (+++ indicates binding activity greater than 90%)”.

Consider `C=CC(=O)N1CCN(c2nc(OCC(F)(F)c3ccccn3)nc3c(F)c(-c4c(C)ccc5[nH]ncc45)c(Cl)cc23)CC1` [Example I-123, 1-(4-(6-chloro-2-(2,2-difluoro-2-(pyridin-2-yl)ethoxy)-8-fluoro-7-(5-methyl-1H-indazol-4-yl)quinazolin-4-yl)piperazin-1-yl) prop-2-en-1-one], for which the Binding % entry is “+++ (+++ indicates binding activity greater than 90%)”.

As for `C=CC(=O)N1CCN(c2nc(OCC(F)(F)c3ccccn3)nc3c(F)c(-c4c(O)cccc4F)c(Cl)cc23)CC1` [Example I-124, 1-(4-(6-chloro-2-(2,2-difluoro-2-(pyridin-2-yl)ethoxy)-8-fluoro-7-(2-fluoro-6-hydroxyphenyl)quinazolin-4-yl)piperazin-1-yl) prop-2-en-1-one], the Binding % entry is listed as “+++ (+++ indicates binding activity greater than 90%)”.

`C=CC(=O)N1CCN(c2nc(OCc3ccnnc3)nc3c(F)c(-c4c(O)cccc4F)c(Cl)cc23)CC1` [Example I-127, 1-(4-(6-chloro-8-fluoro-7-(2-fluoro-6-hydroxyphenyl)-2-(pyridazin-4-ylmethoxy)quinazolin-4-yl)piperazin-1-yl) prop-2-en-1-one]: the Binding % result was “+++ (+++ indicates binding activity greater than 90%)”.

On to `C=CC(=O)N1CCN(c2nc(NC3CCN(CC4CC4)CC3)nc3c(F)c(-c4c(C)ccc5[nH]ncc45)c(Cl)cc23)CC1` [Example I-128, 1-(4-(6-chloro-2-(1-(cyclo-propylmethyl)piperidin-4-ylamino)-8-fluoro-7-(5-methyl-1H-indazol-4-yl)quinazolin-4-yl)piperazin-1-yl) prop-2-en-1-one], for which the Binding % result is given as “+++ (+++ indicates binding activity greater than 90%)”.

As to `C=CC(=O)N1CCN(c2nc(OCc3ccc(C#N)nc3)nc3c(F)c(-c4c(O)cccc4F)c(Cl)cc23)CC1` [Example I-129, 5-((4-(4-acryloyl-piperazin-1-yl)-6-chloro-8-fluoro-7-(2-fluoro-6-hydroxyphenyl)quinazolin-2-yloxy)methyl) picolinonitrile], the Binding % result is “+++ (+++ indicates binding activity greater than 90%)”.

For `C=CC(=O)N1CCN(c2nc(OCCN(CC)CC)nc3c(F)c(-c4c(C)ccc5[nH]ncc45)c(Cl)cc23)CC1` [Example I-130, 1-(4-(6-chloro-2-(2-(diethyl-amino)ethoxy)-8-fluoro-7-(5-methyl-1H-indazol-4-yl)quinazolin-4-yl)piperazin-1-yl) prop-2-en-1-one], the Binding % result is “+++ (+++ indicates binding activity greater than 90%)”.

For the molecule `C=CC(=O)N1CCN(c2nc(N3CC(N(CC)CC)C3)nc3c(F)c(-c4c(O)cccc4F)c(Cl)cc23)CC1` [Example I-131, 1-(4-(6-chloro-2-(3-(diethyl-amino)azetidin-1-yl)-8-fluoro-7-(2-fluoro-6-hydroxyphenyl)quinazolin-4-yl)piperazin-1-yl) prop-2-en-1-one], the Binding % result is listed as “+++ (+++ indicates binding activity greater than 90%)”.

Turning to `C=CC(=O)N1CCN(c2nc(NC3CCN(C4CCC4)CC3)nc3c(F)c(-c4c(C)ccc5[nH]ncc45)c(Cl)cc23)CC1` [Example I-132, 1-(4-(6-chloro-2-(1-cyclobutyl-piperidin-4-ylamino)-8-fluoro-7-(5-methyl-1H-indazol-4-yl)quinazolin-4-yl)piperazin-1-yl) prop-2-en-1-one], the Binding % entry was “+++ (+++ indicates binding activity greater than 90%)”.

For the molecule `C=CC(=O)N1CCN(c2nc(NC3CCCN(CC(F)(F)F)C3)nc3c(F)c(-c4c(O)cccc4F)c(Cl)cc23)CC1` (stereo not drawn) [Example I-133, 1-(4-(6-chloro-8-fluoro-7-(2-fluoro-6-hydroxyphenyl)-2-(1-(2,2,2-trifluoroethyl)piperidin-3-ylamino)quinazolin-4-yl)piperazin-1-yl) prop-2-en-1-one], the Binding % entry is listed as “++ (++ indicates binding activity from 50 to 90%)”.

As to `C=CC(=O)N1CCN(c2nc(NC3CCCN(CC4CC4)C3)nc3c(F)c(-c4c(O)cccc4F)c(Cl)cc23)CC1` (stereo not drawn) [Example I-134, 1-(4-(6-chloro-2-(1-(cyclopropyl-methyl)piperidin-3-ylamino)-8-fluoro-7-(2-fluoro-6-hydroxyphenyl)quinazolin-4-yl)piperazin-1-yl) prop-2-en-1-one], the Binding % result was “+++ (+++ indicates binding activity greater than 90%)”.

Consider `C=CC(=O)N1CCN(c2nc(CCNc3ncccn3)nc3c(F)c(-c4c(O)cccc4F)c(Cl)cc23)CC1` [Example I-135, 1-(4-(6-chloro-8-fluoro-7-(2-fluoro-6-hydroxyphenyl)-2-(2-(pyrimidin-2-ylamino)ethyl)quinazolin-4-yl)piperazin-1-yl) prop-2-en-1-one], for which the Binding % entry is “+++ (+++ indicates binding activity greater than 90%)”.

For `C=CC(=O)N1CCN(c2nc(NC3CCN(C(C)C)CC3)nc3c(F)c(-c4c(C)ccc5[nH]ncc45)c(Cl)cc23)CC1` [Example I-136, 1-(4-(6-chloro-8-fluoro-2-(1-isopropyl-piperidin-4-ylamino)-7-(5-methyl-1H-indazol-4-yl)quinazolin-4-yl)piperazin-1-yl) prop-2-en-1-one], the Binding % entry is given as “+++ (+++ indicates binding activity greater than 90%)”.

For the molecule `C=CC(=O)N1CCN(c2nc(NC3CCN(C4COC4)CC3)nc3c(F)c(-c4c(C)ccc5[nH]ncc45)c(Cl)cc23)CC1` [Example I-137, 1-(4-(6-chloro-8-fluoro-7-(5-methyl-1H-indazol-4-yl)-2-(1-(oxetan-3-yl)piperidin-4-ylamino)quinazolin-4-yl)piperazin-1-yl) prop-2-en-1-one], the Binding % entry was “+++ (+++ indicates binding activity greater than 90%)”.

As to `C=CC(=O)N1CCN(c2nc(OC3CCN(C4CC4)CC3)nc3c(F)c(-c4c(C)ccc5[nH]ncc45)c(Cl)cc23)CC1` [Example I-138], the Binding % result is reported as “+++ (+++ indicates binding activity greater than 90%)”.
